US20040037735A1, “Allograft tissue purification process for cleaning bone” (priority 2002, published 2004)
Where two headings read alike, the source gives them in different places.

Experiments:
[1] = 32% DBM in hyaluronan carrier, histology after 28 days
Method: Osteoinductivity: Cortical bone from three donors ([…], […], […]) was processed using a control process, 0 hour H2O2 with no sonication, a treatment process with 1 hour, 3 hours, and 5 hours of H2O2 treatment, and a negative control. After processing, the bone was ground, demineralized, and prepared into 32% Demineralized Bone Matrix in a hyaluronan carrier. Samples (15 mg) were implanted bilaterally into the hamstring muscle in an athymic mouse model, approved by the University of Medicine and Dentistry of New Jersey animal care and use committee. Implants were evaluated histologically after 28 days.

Escherichia coli = assay: Bacteriological sterility: log reduction on cortical bone samples; type: cell-based; details: single process step; for Microbiological Log Reductions T2: full cycle time; for Microbiological Log Reductions T1: one quarter cycle time
Method: (§1) Bacteriological Sterility: Cortical bone samples were subjected to the previous steps of the process. […] The samples were assayed for bacteria activity, using standard assays.

Staphylococcus aureus = assay: as above; type: cell-based; details: single process step; for Microbiological Log Reductions T2: full cycle time; for Microbiological Log Reductions T1: one quarter cycle time
Method: as §1

[2] = system: Staphylococcus epidermidis; assay: as above; type: cell-based; details: single process step; for Microbiological Log Reductions T2: full cycle time; for Microbiological Log Reductions T1: one quarter cycle time
Method: as §1

Candida albicans = assay: as above; type: cell-based; details: single process step; for Microbiological Log Reductions T2: full cycle time; for Microbiological Log Reductions T1: one quarter cycle time
Method: as §1

Pseudomonas aeruginosa = assay: as above; type: cell-based; details: single process step; for Microbiological Log Reductions T2: full cycle time; for Microbiological Log Reductions T1: one quarter cycle time
Method: as §1

[3] = system: Bacillus subtilis (vegetative); assay: as above; type: cell-based; details: single process step; for Microbiological Log Reductions T2: full cycle time; for Microbiological Log Reductions T1: one quarter cycle time
Method: as §1

| Compound | mean (SD) osteoinductivity score ([1]; 1 hour H2O2 treatment of bone) | mean (SD) osteoinductivity score ([1]; 3 hours H2O2 treatment of bone) | mean (SD) osteoinductivity score ([1]; 5 hours H2O2 treatment of bone) | Microbiological Log Reductions T2 (Escherichia coli) | Microbiological Log Reductions T1 (Escherichia coli) | Microbiological Log Reductions T2 (Staphylococcus aureus) | Microbiological Log Reductions T1 (Staphylococcus aureus) | Microbiological Log Reductions T2 [2] | Microbiological Log Reductions T1 [2] | Microbiological Log Reductions T2 (Candida albicans) | Microbiological Log Reductions T1 (Candida albicans) | Microbiological Log Reductions T2 (Pseudomonas aeruginosa) | Microbiological Log Reductions T1 (Pseudomonas aeruginosa) | Microbiological Log Reductions T2 [3] | Microbiological Log Reductions T1 [3] |
| --- | --- | --- | --- | --- | --- | --- | --- | --- | --- | --- | --- | --- | --- | --- | --- |
| OO [H2O2, hydrogen peroxide] | 3.04 (0.97) | 2.57 (1.36) | 1.47 (1.10) | >5.19 Log | >5.19 Log | >5.93 Log | >5.93 Log | >5.21 Log | >5.21 Log | >5.10 Log | >5.47 Log | >5.09 Log | >5.09 Log | >5.25 Log | >5.25 Log |
| Triton X-100 | – | – | – | 1.82 Log | 0.03 Log | 0.20 Log | −0.59 Log | 0.41 Log | 0.56 Log | 1.58 Log | 1.78 Log | 3.40 Log | 2.48 Log | 2.41 Log | 2.56 Log |
